Test results reported in EP0238178B1, “Novel derivatives of erythromycylamine” (ELI LILLY AND COMPANY, priority 1986, dated 1987).
Values after ≈ are worked out from the molar mass of the structure shown. Read-outs that look alike come from different tables or passages of the source.

Key:
[1] = system: Streptococcus sp. group D 2041; assay: MIC, standard agar-dilution assay; format: cell-based
[2] = system: Staphylococcus aureus X1.1; assay: MIC, standard agar-dilution assay; format: cell-based
[3] = system: Staphylococcus aureus S13E; assay: MIC, standard agar-dilution assay; format: cell-based
[4] = system: Streptococcus pyogenes C203; assay: MIC, standard agar-dilution assay; format: cell-based
[5] = system: Staphylococcus epidermidis 222; assay: MIC, standard agar-dilution assay; format: cell-based
[6] = system: Streptococcus sp. group D X66; assay: MIC, standard agar-dilution assay; format: cell-based; conditions: Streptococcus sp. group D X66
[7] = system: Haemophilus influenzae C.L.; assay: MIC, standard agar-dilution assay; format: cell-based; conditions: Ampicillin-sensitive strain
[8] = system: Haemophilus influenzae 76; assay: MIC, standard agar-dilution assay; format: cell-based; conditions: Haemophilus influenzae 76, Ampicillin-resistant strain
Escherichia coli EC14 = assay: MIC, standard agar-dilution assay; format: cell-based
[9] = system: Streptococcus pneumoniae Park I; assay: MIC, standard agar-dilution assay; format: cell-based
Streptococcus pyogenes = assay: Experimental bacterial infection in mice, ED50; format: in vivo; conditions: two doses, dose protecting 50% of animals; for ED50: Streptococcus pyogenes
Method: (§1) The new derivatives of this invention have also shown in vivo antimicrobial activity against experimental bacterial infections. When two doses of test compound were administered to mice in experimental infections, the activity observed was measured as an EDso value [effective dose in mg/kg to protect 50% of the test animals: see Warren Wick, et al., J. Bacteriol. 81, 233-235 (1961)].

Streptococcus pneumoniae = assay: Experimental bacterial infection in mice, ED50; format: in vivo; conditions: two doses, dose protecting 50% of animals; for ED50: Streptococcus pneumoniae
Method: as §1

Staphylococcus aureus = assay: Experimental bacterial infection in mice, ED50; format: in vivo; conditions: two doses, dose protecting 50% of animals; for ED50: Staphylococcus aureus
Method: as §1

[10] = system: Klebsiella pneumoniae X68; assay: MIC, standard agar-dilution assay; format: cell-based; conditions: read-out: MIC
[11] = sc, subcutaneous, read-out: Subcutaneous ED50

Row | Compound | MIC ([1]; read-out: MIC) | MIC ([2]; read-out: MIC) | MIC [3] | MIC ([4]; read-out: MIC) | MIC ([5]; read-out: MIC) | MIC ([6]; read-out: MIC) | MIC ([7]; read-out: MIC) | MIC ([8]; read-out: MIC) | MIC (Escherichia coli EC14; read-out: MIC) | MIC ([9]; read-out: MIC) | ED50 (Streptococcus pyogenes; po, read-out: Oral ED50) | ED50 (Streptococcus pneumoniae; po, read-out: Oral ED50) | ED50 (Staphylococcus aureus; po, read-out: Oral ED50) | MIC [10] | other results
1 | CCN[C@@H]1[C@H](C)[C@@H](O)[C@](C)(O)[C@@H](CC)OC(=O)[C@H](C)[C@@H](O[C@H]2C[C@@](C)(OC)[C@@H](O)[C@H](C)O2)[C@H](C)[C@@H](O[C@@H]2O[C@H](C)C[C@H](N(C)C)[C@H]2O)[C@](C)(O)C[C@H]1C [Compound 2, (9S)-9-Deoxo-9-(ethylamino)erythromycin] | 4 µg/mL (≈ 5.24 µM) | 1 µg/mL (≈ 1.31 µM) | 2 µg/mL (≈ 2.62 µM) | 0.125 µg/mL (≈ 0.164 µM) | 1 µg/mL (≈ 1.31 µM) | 0.25 µg/mL (≈ 0.328 µM) | 1 µg/mL (≈ 1.31 µM) | 4 µg/mL (≈ 5.24 µM) | 32 µg/mL (≈ 41.9 µM) | 0.03 µg/mL (≈ 0.0393 µM) | 12.5 mg/kg | 13.4 mg/kg | 23.4 mg/kg | 64 µg/mL (≈ 83.9 µM) | 
2 | CCCN[C@@H]1[C@H](C)[C@@H](O)[C@](C)(O)[C@@H](CC)OC(=O)[C@H](C)[C@@H](O[C@H]2C[C@@](C)(OC)[C@@H](O)[C@H](C)O2)[C@H](C)[C@@H](O[C@@H]2O[C@H](C)C[C@H](N(C)C)[C@H]2O)[C@](C)(O)C[C@H]1C [Compound 3, 9-Deoxo-9-(n-propylamino)erythromycin] | 4 µg/mL (≈ 5.15 µM) | 1 µg/mL (≈ 1.29 µM) | 0.25 µg/mL (≈ 0.322 µM) | 0.03 µg/mL (≈ 0.0386 µM) | 0.5 µg/mL (≈ 0.643 µM) | 0.125 µg/mL (≈ 0.161 µM) | 1 µg/mL (≈ 1.29 µM) | 2 µg/mL (≈ 2.57 µM) | 32 µg/mL (≈ 41.2 µM) | 0.015 µg/mL (≈ 0.0193 µM) | 3.3 mg/kg | 7.2 mg/kg | 11.8 mg/kg | 128 µg/mL (≈ 165 µM) | ED50 (Streptococcus pyogenes; [11]): 1.67 mg/kg; Oral ED50 (Streptococcus pyogenes): 6.1 mg/kg; ED50 (Streptococcus pneumoniae; [11]): 1.77 mg/kg; Oral ED50 (Streptococcus pneumoniae): 6.3 mg/kg; ED50 (Staphylococcus aureus; [11]): 6.11 mg/kg; Oral ED50 (Staphylococcus aureus): 12.6 mg/kg
3 | CCCCN[C@@H]1[C@H](C)[C@@H](O)[C@](C)(O)[C@@H](CC)OC(=O)[C@H](C)[C@@H](O[C@H]2C[C@@](C)(OC)[C@@H](O)[C@H](C)O2)[C@H](C)[C@@H](O[C@@H]2O[C@H](C)C[C@H](N(C)C)[C@H]2O)[C@](C)(O)C[C@H]1C [Compound 4, 9-Deoxo-9-(n-butylamino)erythromycin] | 1 µg/mL (≈ 1.26 µM) | 0.25 µg/mL (≈ 0.316 µM) | 1 µg/mL (≈ 1.26 µM) | 0.06 µg/mL (≈ 0.0758 µM) | 0.25 µg/mL (≈ 0.316 µM) | 0.125 µg/mL (≈ 0.158 µM) | 1 µg/mL (≈ 1.26 µM) | 1 µg/mL (≈ 1.26 µM) | 64 µg/mL (≈ 80.9 µM) | 0.015 µg/mL (≈ 0.019 µM) | 12.5 mg/kg | 12.5 mg/kg | 14.7 mg/kg | 128 µg/mL (≈ 162 µM) | 
4 | CCCCCN[C@@H]1[C@H](C)[C@@H](O)[C@](C)(O)[C@@H](CC)OC(=O)[C@H](C)[C@@H](O[C@H]2C[C@@](C)(OC)[C@@H](O)[C@H](C)O2)[C@H](C)[C@@H](O[C@@H]2O[C@H](C)C[C@H](N(C)C)[C@H]2O)[C@](C)(O)C[C@H]1C [Compound 5, 9-Deoxo-9-(n-pentylamino)erythromycin] | 2 µg/mL (≈ 2.48 µM) | 0.5 µg/mL (≈ 0.621 µM) | 1 µg/mL (≈ 1.24 µM) | 0.06 µg/mL (≈ 0.0745 µM) | 0.5 µg/mL (≈ 0.621 µM) | 0.125 µg/mL (≈ 0.155 µM) | 1 µg/mL (≈ 1.24 µM) | 2 µg/mL (≈ 2.48 µM) | 128 µg/mL (≈ 159 µM) | 0.015 µg/mL (≈ 0.0186 µM) | 8.8 mg/kg | 13.6 mg/kg | 25 mg/kg | 128 µg/mL (≈ 159 µM) | 
5 | CC[C@H]1OC(=O)[C@H](C)[C@@H](O[C@H]2C[C@@](C)(OC)[C@@H](O)[C@H](C)O2)[C@H](C)[C@@H](O[C@@H]2O[C@H](C)C[C@H](N(C)C)[C@H]2O)[C@](C)(O)C[C@@H](C)[C@H](NCCCc2ccccc2)[C@H](C)[C@@H](O)[C@]1(C)O [Compound 17, (9S)-9-Deoxo-9-[(3-phenypropyl)amino]erythromycin] | 2 µg/mL (≈ 2.34 µM) | 1 µg/mL (≈ 1.17 µM) | 0.5 µg/mL (≈ 0.586 µM) | 0.015 µg/mL (≈ 0.0176 µM) | 0.5 µg/mL (≈ 0.586 µM) | 0.06 µg/mL (≈ 0.0703 µM) | 2 µg/mL (≈ 2.34 µM) | 2 µg/mL (≈ 2.34 µM) | 128 µg/mL (≈ 150 µM) | 0.015 µg/mL (≈ 0.0176 µM) | 14.1 mg/kg | 17.2 mg/kg | 36.9 mg/kg |  | 
6 | CC[C@H]1OC(=O)[C@H](C)[C@@H](O[C@H]2C[C@@](C)(OC)[C@@H](O)[C@H](C)O2)[C@H](C)[C@@H](O[C@@H]2O[C@H](C)C[C@H](N(C)C)[C@H]2O)[C@](C)(O)C[C@@H](C)[C@H](NCCCCCO)[C@H](C)[C@@H](O)[C@]1(C)O [Compound 21, 9-Deoxo-9-[(5-hydroxypentyl)amino]erythromycin] | 4 µg/mL (≈ 4.87 µM) | 0.5 µg/mL (≈ 0.609 µM) | 0.25 µg/mL (≈ 0.304 µM) | < 0.008 µg/mL | 0.5 µg/mL (≈ 0.609 µM) | 0.25 µg/mL (≈ 0.304 µM) | 2 µg/mL (≈ 2.44 µM) |  | 32 µg/mL (≈ 39 µM) | < 0.008 µg/mL | 42.6 mg/kg | > 50 mg/kg | > 50 mg/kg | 128 µg/mL (≈ 156 µM) | 
7 | CC[C@H]1OC(=O)[C@H](C)[C@@H](O[C@H]2C[C@@](C)(OC)[C@@H](O)[C@H](C)O2)[C@H](C)[C@@H](O[C@@H]2O[C@H](C)C[C@H](N(C)C)[C@H]2O)[C@](C)(O)C[C@@H](C)[C@H](NCCCOC)[C@H](C)[C@@H](O)[C@]1(C)O [Compound 23, (9S)-9-Deoxo-9-[(3-methoxypropyl)amino]erythromycin] | 8 µg/mL (≈ 9.91 µM) | 2 µg/mL (≈ 2.48 µM) | 2 µg/mL (≈ 2.48 µM) | 0.125 µg/mL (≈ 0.155 µM) | 0.5 µg/mL (≈ 0.62 µM) | 0.25 µg/mL (≈ 0.31 µM) | 4 µg/mL (≈ 4.96 µM) | 4 µg/mL (≈ 4.96 µM) | 64 µg/mL (≈ 79.3 µM) | 0.03 µg/mL (≈ 0.0372 µM) | 13.5 mg/kg | 15.9 mg/kg | 16.4 mg/kg |  | ED50 (Streptococcus pyogenes; [11]): 2.1 mg/kg; ED50 (Streptococcus pneumoniae; [11]): 8.3 mg/kg; ED50 (Staphylococcus aureus; [11]): 3.73 mg/kg
8 | Endo- and Exo-9-Deoxo-9-[(bicyclo[2.2.1]hept-2-en-5-yl-methyl)amino]erythromycin [Compound 19] |  |  | 2 µg/mL |  |  |  |  |  |  |  |  |  |  |  | MIC [1]: 8 µg/mL; MIC [2]: 2 µg/mL; MIC [4]: 0.25 µg/mL; MIC [5]: 1 µg/mL; MIC [6]: 1 µg/mL; MIC [7]: 8 µg/mL; MIC [8]: 8 µg/mL; MIC (Escherichia coli EC14): 64 µg/mL; MIC [9]: 0.015 µg/mL; Oral ED50 (Streptococcus pyogenes): 16.6 mg/kg; Oral ED50 (Streptococcus pneumoniae): 25.0 mg/kg; Oral ED50 (Staphylococcus aureus): >50 mg/kg
